One compound from ChEMBL document CHEMBL5625259, “Direct-to-biology platform: From synthesis to biological evaluation of SHP2 allosteric inhibitors” (Bioorg Med Chem Lett, 2024) can be followed below.

The assay addresses T1, Tyrosine-protein phosphatase non-receptor type 11 (Homo sapiens, UniProt Q06124).
T1 sequence (Q06124 whole entry): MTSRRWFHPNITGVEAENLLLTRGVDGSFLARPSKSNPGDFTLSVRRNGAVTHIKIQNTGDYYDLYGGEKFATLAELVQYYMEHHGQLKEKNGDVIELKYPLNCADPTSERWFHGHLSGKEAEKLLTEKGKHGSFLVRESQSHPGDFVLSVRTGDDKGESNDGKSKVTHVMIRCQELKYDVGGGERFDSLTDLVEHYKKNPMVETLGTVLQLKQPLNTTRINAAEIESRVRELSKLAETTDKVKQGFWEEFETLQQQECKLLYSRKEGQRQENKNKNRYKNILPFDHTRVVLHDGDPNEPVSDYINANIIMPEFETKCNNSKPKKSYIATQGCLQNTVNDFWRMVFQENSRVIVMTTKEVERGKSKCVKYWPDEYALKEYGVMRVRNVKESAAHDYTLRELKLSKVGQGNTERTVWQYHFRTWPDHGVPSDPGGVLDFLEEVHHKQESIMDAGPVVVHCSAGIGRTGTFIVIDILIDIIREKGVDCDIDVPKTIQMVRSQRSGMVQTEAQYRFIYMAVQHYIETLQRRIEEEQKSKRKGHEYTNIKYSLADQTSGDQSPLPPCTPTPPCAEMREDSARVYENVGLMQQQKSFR
The assay can be described thus: Allosteric inhibition of wild type SHP2 (unknown origin) assessed as dephosphorylation of DIFMUP by fluorescence based envision microplate reader analysis.

Some results are limits rather than exact numbers.

Take `FC(F)(F)c1ncccc1Sc1cnc2[nH]c(N3CCCC4(CNCCO4)C3)nc2n1` (stereo unspecified): the IC50 – broadly, the concentration that gives 50% inhibition – was over 3.2 µM.
